“Also recorded” adds a separate entry of the source.
Tests used:
[1] = Stability of KIC or HMB in the rumen (incubation in rumen fluid); format: in vitro ADME, steer; details: for KIC or HMB in rumen fluid: 39° C.
Method: Rumen fluid was collected from a fistulated steer. After filtration and dilution (1:4) with an artificial saliva, 25ml of the solution was added to 50ml plastic tubes. Each tube was fitted with a one-way valve to allow gases to escape while not allowing air into the tube. Each tube was then gassed with CO2 and incubated at 39° C. After 30 min a solution of KIC or HMB was added to the tube in concentrations to simulate what would be present in the rumen of an animal consuming 0.05% of the diet as KIC or HMB. It was estimated that a 50 uM concentration would be attained in this case. At timed intervals 50 ul samples of this rumen fluid were taken and analyzed for KIC and HMB.

[2] = test system: lambs; assay: Feeding of HMB to Lambs--Trial 1; format: in vivo
Text: Animals and Experimental Design. Three sets of twin lambs were housed individually in fiberglass pens. Animals were randomly assigned to control or HMB diets, using Ca-HMB as the feed additive at a level of 0.5% of the basal diet.
Composition of Basal Diet Fed to All Sheep.
(§1) Trace mineral & vitamin premix

[3] = test system: lambs; assay: Feeding of HMB to Lambs--Trial 2; format: in vivo
Text: Animals and Experimental Design. Twenty-two lambs were housed individually in fiberglass pens (1.15 m^2) and randomly assigned to control or HMB diets. The control had nothing added to the diet while the HMB animals had 1 g of CaHMB supplemented to their diets each day. At the beginning of the experiment animals were weighed and ultrasound measurement made of the longissimus area and the amount of fat over the longissimus muscle. These measurements were made over the 12th rib area. Feed consumption was monitored. At the end of the experiment animals were weighed, feed consumption measured and the longissimus area and fat thickness measured again with the ultrasound apparatus. The gain in longissimus area and backfat were calculated from the initial value.
Composition of Basal Diet Fed to All Sheep
as §1

[4] = test system: male leghorn chicks; assay: Feeding HMB to Poultry: growth, feed efficiency and breast muscle of chicks; format: in vivo; details: 0.04% of the diet; for Feed/gain / Breast muscle / Gain: 5 week data; for Feed/gain: control 2.30; for Breast muscle: control 2.84; for Gain: control 222; for Breast muscle, change from control / Feed/gain, change from control: ** (HMB) significant at p < .02
Method: (§2) To compare KIC and HMB as growth promotants, young male leghorn chicks were allotted to 12 battery (wire mess floors) pens consisting of 10 birds each. Treatments of control, HMB (0.04% of the diet) and KIC (0.04% of the diet) were assigned to the pens. Feed consumption was measured during the 5 week experiment. During week 2 of the experiment chicks were injected with 50 ul of a 20% suspension of pig red blood cells intraperitoneally.
(§3) Chicks were fed a diet adequate in all nutrients for leghorns of this age. HMB was a supplement to this diet at 0.04% of the diet (w/w).
(§4) At the end of the 5 week experiment chicks were decapitated and serum collected for pig red blood cells antibody titer determination. Titers to red blood cells were evaluated by a microtiter agglutination test (Kuhlman, et al.). Also, the Pectoralis major muscle (the major breast muscle) was dissected and weighed as a measure of muscle growth.

[5] = test system: pig red blood cells; assay: Pig red blood cell antibody titer in chicks (microtiter agglutination test); format: in vivo, chicks (male leghorn); details: 0.04% of the diet, 5 weeks; for Red blood cell titer, change from control: ** (HMB) significant at p < .02; for Red blood cell titer: pig red blood cells injected week 2, control 1.57
Method: as §2, §3, §4

[6] = test system: domestic animals; assay: Growth metabolism of domestic animals, HMB compared with KIC (summary statement); details: in vivo
[7] = feeds for cattle and sheep; background statement; cited from earlier work
[8] = test system: domestic animals; details: cited from earlier work
[9] = KIC fed as replacement for leucine; cited from earlier work
[10] = Hygroscopicity of HMB salts; format: physicochemical
[11] = 0 min after addition, rumen fluid diluted 1:4 with artificial saliva, initial KIC could only be estimated
[12] = 15 min after addition, rumen fluid diluted 1:4
[13] = 30 min after addition, rumen fluid diluted 1:4
[14] = 60 min after addition, rumen fluid diluted 1:4
[15] = 240 min after addition, rumen fluid diluted 1:4
[16] = 480 min after addition, rumen fluid diluted 1:4

CC(C)(O)CC(=O)O [HMB, β-hydroxy-β-methyl butyric acid]
stability in rumen environment (in words) [1]: not being subject to appreciable rumen destruction; also recorded: not subject to significant rumen destruction; also recorded: quite stable in a rumen environment | KIC or HMB in rumen fluid [1, 11]: 60 µM | KIC or HMB in rumen fluid [1, 12]: 76 µM | KIC or HMB in rumen fluid [1, 13]: 81 µM | KIC or HMB in rumen fluid [1, 14]: 71 µM | KIC or HMB in rumen fluid [1, 15]: 74 µM | KIC or HMB in rumen fluid [1, 16]: 74 µM | Longissimus area ([2]; Ca-HMB 0.5% of the basal diet, control 2.1): 2.3 sq. in. | Renal Fat % ([2]; Ca-HMB 0.5% of the basal diet, control 2.42): 1.90 % of animal live weight | Feed/gain ([2]; Ca-HMB 0.5% of the basal diet, control 3.89): 3.60 | Back Fat (fat thickness over 12th rib) ([2]; Ca-HMB 0.5% of the basal diet, control .21): .12 in | Average daily gain ([2]; Ca-HMB 0.5% of the basal diet, control .287): .296 kg/day | lean tissue and fat growth (in words) ([2]; limited study, vs controls): appeared to stimulate growth of lean tissues at the expense of fat | % change due to HMB, Average daily gain ([2]; vs controls): +3% | % change due to HMB, Feed/Gain ([2]; vs controls): -7% | % change due to HMB, Longissimus area ([2]; vs controls): +10% | % change due to HMB, Back Fat ([2]; vs controls, *P < 0.5): -43% | % change due to HMB, Renal Fat ([2]; vs controls, *P < 0.5): -22% | Feed/gain ([3]; 1 g CaHMB per day, control 4.41): 4.28 | Total gain ([3]; 1 g CaHMB per day, lambs from 60 lbs. to 100 lbs., control 38.5): 40.5 lbs | Loin area gain ([3]; 1 g CaHMB per day, ultrasound, control 2.08): 3.34 cm2 | Back fat gain ([3]; 1 g CaHMB per day, ultrasound, control .27): .19 cm | % Change, Feed/gain ([3]; vs control): -3% | % Change, Total gain ([3]; vs control): +6% | performance and lean vs. fat gain (in words) ([3]; vs control): increases preformance and increases lean vs. fat gain | % Change, Back fat gain ([3]; vs control, **P < .02 level): -30% | % Change, Loin area gain ([3]; vs control, **P < .02 level): 60% | Feed/gain [4]: 2.17 | Breast muscle [4]: 3.00% | Gain [4]: 229 g | Gain, change from control ([4]; 5 weeks): 3.3% | comparison with KIC in all parameters (in words) ([4]; 5 weeks): superior in all parameters measured | performance of growing chicks (in words) ([4]; 5 weeks): increased performance of growing chicks by increasing the rate of growth and by making more efficient use of feed for growth | Breast muscle, change from control ([4]; 5 weeks): 5.5% | Feed/gain, change from control ([4]; 5 weeks): -5.8% | Red blood cell titer, change from control [5]: 107% | Red blood cell titer [5]: 3.25 dilution | improving growth metabolism compared with KIC (in words) [6]: more effective for improving growth metabolism of domestic animals | lean tissue development (in words) [6]: increase markedly the development of lean tissue

CC(C)CC(=O)C(=O)O [KIC, α-keto-isocaproic acid, reference compound]
stability in rumen environment (in words) [1]: rapidly destroyed by the rumen bacteria | KIC or HMB in rumen fluid [1, 11]: 30 µM | KIC or HMB in rumen fluid [1, 12]: 15 µM | KIC or HMB in rumen fluid [1, 13]: 4 µM | KIC or HMB in rumen fluid [1, 14]: 2 µM | KIC or HMB in rumen fluid [1, 15]: 2 µM | KIC or HMB in rumen fluid [1, 16]: 1 µM | Feed/gain [4]: 2.24 | Breast muscle [4]: 2.94% | Gain [4]: 229 g | Gain, change from control ([4]; 5 weeks): 3.3% | Breast muscle, change from control ([4]; 5 weeks): 3.5% | Feed/gain, change from control ([4]; 5 weeks): -2.5% | Red blood cell titer, change from control [5]: 68% | Red blood cell titer [5]: 2.65 dilution | accumulation of body fat (in words) [6]: slight tending for KIC to reduce the accumulation of body fat | lean tissue development (in words) [6]: not obtainable with KIC | rumen destruction (in words) [7]: subject to partial rumen destruction | effects on the immune system (in words) ([8]; U.S. Pat. No. 4,835,185): some apparently beneficial effects on the immune system | cholesterol in meat, milk and eggs (in words) ([8]; U.S. Pat. Nos. 4,760,090 and 4,760,531): cholesterol reduction in meat, milk and eggs | consistency of beneficial effects (in words) ([8]; domestic animals, particularly ruminants): not consistently obtainable | milk production (in words) ([8]; lactating domestic animals, such as dairy cattle, U.S. Pat. No. 4,758,593): the quantity of milk produced may be increased | egg production (in words) ([8]; laying chickens, U.S. Pat. No. 4,760,531): can also sometimes be increased | wool production (in words) ([8]; mature sheep, U.S. Pat. No. 4,760,090): the amount of wool produced may also be increased | rates of weight gain and/or feed efficiencies (in words) ([8]; milligram amounts of KIC, U.S. Pat. Nos. 4,760,090 and 4,883,817): some increases in the rates of weight gain and/or feed efficiencies have been obtained | muscle growth (in words) ([8]; previous research): generally has not been found to stimulate muscle growth | fat deposition (in words) ([8]; sheep, previous research): decrease fat deposition | amount of KIC required relative to nutritionally required amount of leucine [9]: two to three

CC(C)(O)CC(=O)O [Na-HMB]
hygroscopicity (in words) [10]: more hydroscopic than Ca-HMB

— US5028440A, “Method of raising meat producing animals to increase lean tissue development” (Iowa State University Research Foundation, Inc., priority 1990, dated 1991)
